Assay results: ChEMBL document CHEMBL3046483, “Novel 2'-hydroxylfurylchalcones: synthesis and biological activity” (2010)
Calls of active or inactive are those of the source. The rule behind the calls is not given here.

Assays:
Amaranthus tricolor [1] = experiment: Herbicidal activity against Amaranthus tricolor assessed as inhibitory rate of seedling height at 7.5 g/hm'2 relative to control; format: functional
Dinebra chinensis [2] = experiment: Herbicidal activity against Dinebra chinensis assessed as inhibitory rate of seedling height at 7.5 g/hm'2 relative to control; format: functional
Pyricularia grisea = experiment: Antifungal activity against Magnaporthe grisea assessed as rice blast control measured after 1 day; format: functional, organism-based
Cucumis sativus [3] = experiment: Herbicidal activity against Cucumis sativus (cucumber) assessed as inhibitory rate of seedling height at 7.5 g/hm'2 relative to control; format: functional
[4] = tested on: Pseudoperonospora cubensis; experiment: Antifungal activity against Pseudoperonospora cubensis assessed as cucumber downy mildew control measured after 1 day; format: functional, organism-based
Botrytis cinerea = experiment: Antifungal activity against Botryotinia fuckeliana assessed as cucumber grey mould control measured after 1 day; format: functional, organism-based
Triticum aestivum [5] = experiment: Herbicidal activity against Triticum aestivum (wheat) assessed as inhibitory rate of seedling height at 7.5 g/hm'2 relative to control; format: functional
Amaranthus tricolor [6] = experiment: Herbicidal activity against Amaranthus tricolor assessed as inhibitory rate of fresh weight gain at 7.5 g/hm'2 relative to control; format: functional
Cucumis sativus [7] = experiment: Herbicidal activity against Cucumis sativus (cucumber) assessed as inhibitory rate of fresh weight gain at 7.5 g/hm'2 relative to control; format: functional
[8] = tested on: Brassica rapa subsp. oleifera; experiment: Herbicidal activity against Brassica rapa subsp. oleifera assessed as inhibitory rate of seedling height at 7.5 g/hm'2 relative to control; format: functional
Triticum aestivum [9] = experiment: Herbicidal activity against Triticum aestivum (wheat) assessed as inhibitory rate of fresh weight gain at 7.5 g/hm'2 relative to control; format: functional
[10] = tested on: Golovinomyces cichoracearum; experiment: Antifungal activity against Golovinomyces cichoracearum assessed as cucumber powdery mildew control measured after 1 day; format: functional; parameters: concentration or dose not given beside the values
[11] = tested on: Brassica rapa subsp. oleifera; experiment: Herbicidal activity against Brassica rapa subsp. oleifera assessed as inhibitory rate of fresh weight gain at 7.5 g/hm'2 relative to control; format: functional
Sorghum bicolor [12] = experiment: Herbicidal activity against Sorghum bicolor assessed as inhibitory rate of seedling height at 7.5 g/hm'2 relative to control; format: functional
Sorghum bicolor [13] = experiment: Herbicidal activity against Sorghum bicolor assessed as inhibitory rate of fresh weight gain at 7.5 g/hm'2 relative to control; format: functional
Dinebra chinensis [14] = experiment: Herbicidal activity against Dinebra chinensis assessed as inhibitory rate of fresh weight gain at 7.5 g/hm'2 relative to control; format: functional

O=C(/C=C/c1ccco1)c1occc1O
inhibition (INH) (Amaranthus tricolor [1]): 12.5% | inhibition (INH) (Dinebra chinensis [2]): -3.2% | Activity (Pyricularia grisea): inactive | inhibition (INH) (Cucumis sativus [3]): 36.1% | Activity [4]: inactive | Activity (Botrytis cinerea): inactive | inhibition (INH) (Triticum aestivum [5]): 24.4% | inhibition (INH) (Amaranthus tricolor [6]): 69.6% | inhibition (INH) (Cucumis sativus [7]): 49.7% | inhibition (INH) [8]: 38.1% | inhibition (INH) (Triticum aestivum [9]): 49.6% | Activity [10]: <10% | inhibition (INH) [11]: 82.1% | inhibition (INH) (Sorghum bicolor [12]): 4% | inhibition (INH) (Sorghum bicolor [13]): 12.4% | inhibition (INH) (Dinebra chinensis [14]): 56.1%
